Data published in patent publication US20220119354A1, “DIAMINO-SUBSTITUTED PYRIDINES AND PYRIMIDINES AS HERBICIDES” (FMC Corporation, priority 2019, published 2022).

Assays:
Assay type in all cases: in vivo
[1] = tested on: ryegrass, Italian (Lolium multiflorum); assay: Test A postemergence, Italian ryegrass; conditions: 0 to 100 scale
Text: (§1) Seeds of plant species selected from barnyardgrass (Echinochloa crus-galli), kochia (Kochia scoparia), ragweed (common ragweed, Ambrosia elatior), ryegrass, Italian (Lolium multiflorum), foxtail, giant (Setaria faberii), foxtail, green (Setaria viridis), and pigweed (Amaranthus retroflexus) were planted into a blend of loam soil and sand and treated preemergence with a directed soil spray using test chemicals formulated in a non-phytotoxic solvent mixture which included a surfactant.
(§2) At the same time, plants selected from these weed species and also wheat (Triticum aestivum), corn (Zea mays), blackgrass (Alopecurus myosuroides), and galium (catchweed bedstraw, Galium aparine) were planted in pots containing the same blend of loam soil and sand and treated with postemergence applications of test chemicals formulated in the same manner. Plants ranged in height from 2 to 10 cm and were in the one- to two-leaf stage for the postemergence treatment. Treated plants and untreated controls were maintained in a greenhouse for approximately 10 d, after which time all treated plants were compared to untreated controls and visually evaluated for injury. Plant response ratings, summarized in Table A, are based on a 0 to 100 scale where 0 is no effect and 100 is complete control. A dash (-) response means no test result.

[2] = tested on: barnyardgrass (Echinochloa crus-galli); assay: Test A preemergence, barnyardgrass; conditions: 0 to 100 scale; for Barnyardgrass plant response rating: 0 is no effect, 100 is complete control
Text: as §1, §2

[3] = tested on: foxtail, giant (Setaria faberii); assay: Test A preemergence, giant foxtail; conditions: 0 to 100 scale; for Foxtail, Giant plant response rating: 0 is no effect, 100 is complete control
Text: as §1, §2

kochia (Kochia scoparia) [4] = assay: Test A preemergence, kochia; conditions: 0 to 100 scale; for Kochia plant response rating: 0 is no effect, 100 is complete control
Text: as §1, §2

[5] = tested on: ragweed (common ragweed, Ambrosia elatior); assay: Test A postemergence, ragweed; conditions: 0 to 100 scale
Text: as §1, §2

[6] = tested on: ryegrass, Italian (Lolium multiflorum); assay: Test A preemergence, Italian ryegrass; conditions: 0 to 100 scale; for Ryegrass, Italian plant response rating: 0 is no effect, 100 is complete control
Text: as §1, §2

[7] = tested on: blackgrass (Alopecurus myosuroides); assay: Test A postemergence, blackgrass; conditions: 0 to 100 scale
Text: as §1, §2

[8] = tested on: sedge, umbrella (small-flower umbrella sedge, Cyperus difformis); assay: Test B flooded paddy test, umbrella sedge; conditions: Flood, 250 g ai/ha, applied to paddy water, 2-leaf stage, visual evaluation after 13 to 15 d
Procedure: (§3) Plant species in the flooded paddy test selected from rice (Oryza sativa), sedge, umbrella (small-flower umbrella sedge, Cyperus difformis), ducksalad (Heteranthera limosa), and barnyardgrass (Echinochloa crus-galli) were grown to the 2-leaf stage for testing. At the time of treatment, test pots were flooded to 3 cm above the soil surface, treated by application of test compounds directly to the paddy water, and then maintained at that water depth for the duration of the test. Treated plants and controls were maintained in a greenhouse for 13 to 15 d, after which time all species were compared to controls and visually evaluated. Plant response ratings, summarized in Table B, are based on a scale of 0 to 100 where 0 is no effect and 100 is complete control. A dash (-) response means no test result.

kochia (Kochia scoparia) [9] = assay: Test A postemergence, kochia; conditions: 0 to 100 scale
Text: as §1, §2

corn (Zea mays) = assay: Test A postemergence, corn; conditions: 0 to 100 scale
Text: as §1, §2

[10] = tested on: ducksalad (Heteranthera limosa); assay: Test B flooded paddy test, ducksalad; conditions: Flood, 250 g ai/ha, applied to paddy water, 2-leaf stage, visual evaluation after 13 to 15 d
Procedure: as §3

rice (Oryza sativa) = assay: Test B flooded paddy test, rice; conditions: Flood, 250 g ai/ha, applied to paddy water, 2-leaf stage, visual evaluation after 13 to 15 d
Procedure: as §3

[11] = tested on: pigweed (Amaranthus retroflexus); assay: Test A postemergence, pigweed; conditions: 0 to 100 scale
Text: as §1, §2

[12] = tested on: galium (catchweed bedstraw, Galium aparine); assay: Test A postemergence, galium; conditions: 0 to 100 scale
Text: as §1, §2

[13] = tested on: foxtail, giant (Setaria faberii); assay: Test A postemergence, giant foxtail; conditions: 0 to 100 scale
Text: as §1, §2

[14] = tested on: wheat (Triticum aestivum); assay: Test A postemergence, wheat; conditions: 0 to 100 scale
Text: as §1, §2

[15] = tested on: barnyardgrass (Echinochloa crus-galli); assay: Test B flooded paddy test, barnyardgrass; conditions: Flood, 250 g ai/ha, applied to paddy water, 2-leaf stage, visual evaluation after 13 to 15 d
Procedure: as §3

[16] = tested on: pigweed (Amaranthus retroflexus); assay: Test A preemergence, pigweed; conditions: 0 to 100 scale; for Pigweed plant response rating: 0 is no effect, 100 is complete control
Text: as §1, §2

[17] = tested on: ragweed (common ragweed, Ambrosia elatior); assay: Test A preemergence, ragweed; conditions: 0 to 100 scale, 0 is no effect, 100 is complete control
Text: as §1, §2

[18] = tested on: barnyardgrass (Echinochloa crus-galli); assay: Test A postemergence, barnyardgrass; conditions: 0 to 100 scale
Text: as §1, §2

[19] = 125 g ai/ha, 0 no effect, 100 complete control
[20] = 500 g ai/ha, 0 no effect, 100 complete control

## Cc1ccc2c([C@H](Nc3ncc(C(F)(F)F)c(N)n3)C3CC3)coc2c1 [Compound 90]
[1]; [19]
  Plant response rating, Ryegrass, Italian: 30
[1]; [20]
  Plant response rating, Ryegrass, Italian: 40
[2]; 125 g ai/ha
  Barnyardgrass plant response rating: 0
[2]; 500 g ai/ha
  Barnyardgrass plant response rating: 80
[3]; 125 g ai/ha
  Foxtail, Giant plant response rating: 70
[3]; 500 g ai/ha
  Foxtail, Giant plant response rating: 100
Kochia (Kochia scoparia) [4]; 125 g ai/ha
  Kochia plant response rating: 0
Kochia (Kochia scoparia) [4]; 500 g ai/ha
  Kochia plant response rating: 90
[5]; [19]
  Plant response rating, Ragweed: 30
[5]; [20]
  Plant response rating, Ragweed: 70
[6]; 125 g ai/ha
  Ryegrass, Italian plant response rating: 30
[6]; 500 g ai/ha
  Ryegrass, Italian plant response rating: 50
[7]; [19]
  Plant response rating, Blackgrass: 0
[7]; [20]
  Plant response rating, Blackgrass: 60
[8]
  Plant response rating, Sedge, Umbrella (0 to 100 scale, 0 is no effect, 100 is complete control): 20
Kochia (Kochia scoparia) [9]; [19]
  Plant response rating, Kochia: 20
Kochia (Kochia scoparia) [9]; [20]
  Plant response rating, Kochia: 90
Corn (Zea mays); [19]
  Plant response rating, Corn: 0
Corn (Zea mays); [20]
  Plant response rating, Corn: 0
[10]
  Plant response rating, Ducksalad (0 to 100 scale, 0 is no effect, 100 is complete control): 25
Rice (Oryza sativa)
  Plant response rating, Rice (0 to 100 scale, 0 is no effect, 100 is complete control): 0
[11]; [19]
  Plant response rating, Pigweed: 60
[11]; [20]
  Plant response rating, Pigweed: 100
[12]; [19]
  Plant response rating, Galium: 40
[12]; [20]
  Plant response rating, Galium: 70
[13]; [19]
  Plant response rating, Foxtail, Giant: 0
[13]; [20]
  Plant response rating, Foxtail, Giant: 50
[14]; [19]
  Plant response rating, Wheat: 0
[14]; [20]
  Plant response rating, Wheat: 30
[15]
  Plant response rating, Barnyardgrass (0 to 100 scale, 0 is no effect, 100 is complete control): 40
[16]; 125 g ai/ha
  Pigweed plant response rating: 70
[16]; 500 g ai/ha
  Pigweed plant response rating: 100
[17]; 125 g ai/ha
  Ragweed plant response rating: 50
[17]; 500 g ai/ha
  Ragweed plant response rating: 100

## C[C@@H](Nc1ncc(C(F)(F)F)c(N)n1)c1cc2cc(F)c(F)cc2o1 [Compounds 30]
[18]; 125 g ai/ha
  Plant response rating, Barnyardgrass: 0
[18]; 500 g ai/ha
  Plant response rating, Barnyardgrass: 30
[1]; 125 g ai/ha
  Plant response rating, Ryegrass, Italian: 0
[1]; 500 g ai/ha
  Plant response rating, Ryegrass, Italian: 0
[2]; 125 g ai/ha
  Plant response rating, Barnyardgrass: 0
[2]; 500 g ai/ha
  Plant response rating, Barnyardgrass: 80
[3]; 125 g ai/ha
  Plant response rating, Foxtail, Giant: 0
[3]; 500 g ai/ha
  Plant response rating, Foxtail, Giant: 70
Kochia (Kochia scoparia) [4]; 125 g ai/ha
  Plant response rating, Kochia: 0
Kochia (Kochia scoparia) [4]; 500 g ai/ha
  Plant response rating, Kochia: 30
[5]; 125 g ai/ha
  Plant response rating, Ragweed: 20
[5]; 500 g ai/ha
  Plant response rating, Ragweed: 80
[6]; 125 g ai/ha
  Plant response rating, Ryegrass, Italian: 0
[6]; 500 g ai/ha
  Plant response rating, Ryegrass, Italian: 0
[7]; 125 g ai/ha
  Plant response rating, Blackgrass: 0
[7]; 500 g ai/ha
  Plant response rating, Blackgrass: 0
[8]
  Plant response rating, Sedge, Umbrella (0 to 100 scale, 0 is no effect, 100 is complete control): 80
Kochia (Kochia scoparia) [9]; 125 g ai/ha
  Plant response rating, Kochia: 20
Kochia (Kochia scoparia) [9]; 500 g ai/ha
  Plant response rating, Kochia: 80
Corn (Zea mays); 125 g ai/ha
  Plant response rating, Corn: 10
Corn (Zea mays); 500 g ai/ha
  Plant response rating, Corn: 0
[10]
  Plant response rating, Ducksalad (0 to 100 scale, 0 is no effect, 100 is complete control): 0
Rice (Oryza sativa)
  Plant response rating, Rice (0 to 100 scale, 0 is no effect, 100 is complete control): 0
[11]; 125 g ai/ha
  Plant response rating, Pigweed: 100
[11]; 500 g ai/ha
  Plant response rating, Pigweed: 100
[12]; 125 g ai/ha
  Plant response rating, Galium: 50
[12]; 500 g ai/ha
  Plant response rating, Galium: 60
[13]; 125 g ai/ha
  Plant response rating, Foxtail, Giant: 0
[13]; 500 g ai/ha
  Plant response rating, Foxtail, Giant: 30
[14]; 125 g ai/ha
  Plant response rating, Wheat: 0
[14]; 500 g ai/ha
  Plant response rating, Wheat: 0
[15]
  Plant response rating, Barnyardgrass (0 to 100 scale, 0 is no effect, 100 is complete control): 0
[16]; 125 g ai/ha
  Plant response rating, Pigweed: 40
[16]; 500 g ai/ha
  Plant response rating, Pigweed: 100
